Assay results reported in patent US20110212899A1, “Corneal Neuritogenesis Promoter Containing Pacap and Its Derivative” (priority 2004, published 2011).
Where no end group is shown, it is not given here.

Tests used:
[1] = tested on: rabbit cornea (corneal flap model); test: Improving effect on reduced sensitivity of the rabbit cornea caused by using a microkeratome (2) (Test Example 7); format: in vivo; settings: 0.01% eye drops, 50 μL 4 times a day for 8 weeks; 7 and 8 weeks after creation of the corneal flap
Experimental: Male Japanese white rabbits with a body weight of 1.5 to 2.0 kg purchased from Kitayama Labes Co., Ltd were used. The animals were each put in separate cages placed in a room wherein a temperature of 23±3° C. and a humidity of 55±10% were kept and a light was on for 12 hours per day (lighting at 8:00 and lights-out at 20:00), and raised after arrival until the final day of the test. The animals were given 100 g of solid feed (Labo R Stock, Nosan Corporation) per day, and could freely have tap water.
Peptide 24 was used as a test substance. The test substance was dissolved in the following vehicle solution at a concentration of 0.01% to prepare eye drops. […]
Corneal sensitivity was measured before the surgery and once a week from the first week to the eighth week after the surgery using the Cochet-Bonnet aesthesiometer.
Corneal sensitivity was determined by the frequency of eyeblink responses induced when a nylon filament attached to the Cochet-Bonnet aesthesiometer was contacted the center of the cornea of the animal. […] When the animal was judged to have corneal sensitivity twice or more, the maximum value (the longest length of the nylon filament of the aesthesiometer) was recorded as corneal sensitivity of the individual at that measurement time point. The measurement was blind trial so that an examiner could not know which group the rabbit being measured belonged to. […]

[2] = tested on: Human normal corneal epithelial cells; test: Promoting effect on proliferation of cultured corneal epithelial cells (Test Example 8); format: cell-based; settings: final concentration (10^−5 M), cultivation for 8 days; p<0.05
Experimental: Human normal corneal epithelial cells (Kurabo Industries Ltd., strain No. 4C0466) were used. Peptide 24 and PACAP27 were used as test substances. The test substance was dissolved in distilled water at a concentration 1000 times of the final concentration (10^−5 M), and the concentration was then adjusted to twice the final concentration with a serum-free proliferation medium for human corneal epithelial cells (EpiLife (−), Kurabo Industries Ltd.). After thawing freeze-preserved human normal corneal epithelial cells, the cells were seeded according to a conventional method and cultured for 7 days at 37° C. in 5% CO2. After the cultivation, the cells were harvested by a conventional method, and were suspended in EpiLife (−) at a concentration of 1.0×10^4 cells/mL. […] The number of the cells was counted based on the ability to reduce MTT (3-(4,5-dimethyl-2-thiazolyl)-2,5-diphenyl-2H-tetrazolium bromide) according to the protocol of Cell Counting Kit-8 (Dojindo Laboratories). […] The plate was incubated at 37° C. in 5% CO2 for 2 hours and then, the absorbance was measured at 450 nm using a microplate reader. Average values of absorbance in the control group and each test substance-addition group were calculated, and the values were compared between the control group and each test substance-addition group by a Dunnett's multiple comparison test (one-tailed). […]

With “His-Ser-Asp-Ala-Ile-Phe-Thr-Asp-Ser-Tyr-Ser-Arg-Tyr-Arg-Arg-Gln-Leu-Ala-Val-Arg-Arg-Tyr-Leu-Ala-Ala-Val-Leu-Gly-Arg-Arg-NH2 (HSDAIFTDSYSRYRRQLAVRRYLAAVLGRR-NH2) [Peptide 24]” the “corneal sensitivity (Cochet-Bonnet aesthesiometer) compared with control group” value [1] was “statistically significant improving effect” and the “cell number (MTT reduction ability) compared with control group” value [2] was “increased”.
